Patent US4853398A, “Leukotriene antagonists and use thereas” (Eli Lilly and Company, priority 1987, dated 1989)

Test system: LTD4 evoked ileal contractions
Assay: LTD4 antagonism: inhibition of LTD4 evoked ileal contractions (isolated guinea pig ileum)
Set-up: species or system guinea pig (male, Hartley)
Conditions: for -log IC50: 50% inhibition of LTD4 responses, interpolated by linear regression from 2-4 concentrations; for Percent inhibition of LTD4 evoked ileal contractions: isolated ileum, five minute exposure
Experimental: Male, Hartley guinea pigs weighing 200-450 grams were killed by decapitation. A section of terminal ileum was removed, the lumen cleaned, and the tissue divided into 2.5 cm. segments. The ilea were mounted in 10 ml. tissue baths containing Krebs-bicarbonate solution of the following composition in mmoles/liter: KCl, 4.6; CaCl2.2H2 O, 1.2; KH2 PO4, 1.2; MgSO4.7H2 O, 1.2; NaCl, 118.2; NaHCO3, 24.8; and dextrose, 10.0. The bath fluid was maintained at 37° C. and aerated with 95 percent oxygen and 5 percent CO2. In addition, the buffer contained 1×10^-6 M atropine to reduce ileal spontaneous activity. Isometric measurements were made with a Grass FTO3C force-displacement transducer and recorded on a Grass polygraph as change in grams of force. A passive force of 0.5 g. was applied to the tissues. After an appropriate equilibration period, single submaximal control responses to pure LTD4 were obtained. Following a five minute exposure of the ileum to an experimental drug, the control concentration of LTD4 was added to the tissue bath. The response of the ileum to LTD4 in the presence of the drug was compared to the response in the absence of the drug. Various degrees of LTD4 antagonism were obtained using 2-4 different concentrations of an experimental compound on a single ileum.

[1] = compound concentration 3 × 10^-7 M
[2] = compound concentration 3 × 10^-8 M
[3] = compound concentration 3 × 10^-9 M
[4] = compound concentration 1 × 10^-8 M
[5] = compound concentration 1 × 10^-7 M

-log IC50 | Compound | Percent inhibition of LTD4 evoked ileal contractions (compound concentration 1 × 10^-9) [%] | Percent inhibition of LTD4 evoked ileal contractions [1] [%] | Percent inhibition of LTD4 evoked ileal contractions [2] [%] | Percent inhibition of LTD4 evoked ileal contractions [3] [%] | Percent inhibition of LTD4 evoked ileal contractions [4] [%] | Percent inhibition of LTD4 evoked ileal contractions [5] [%]
8.58 | CCCc1c(COc2ccc(C(=O)c3cccc(-c4nnn[nH]4)c3)cc2)ccc(C(C)=O)c1O [Example 1, 1-[2-Hydroxy-3-propyl-4-({4-[3-(1H-tetrazol-5-yl)benzoyl]phenoxy}methyl)phenyl]ethanone] | 21 | 98 | 80 | 53 |  | 
8.29 | CCCc1c(COc2ccc(C(=O)c3ccc(-c4nnn[nH]4)cc3)cc2)ccc(C(C)=O)c1O [Example 2, 1-[2-Hydroxy-3-propyl-4-({4-[4-(1H-tetrazol-5-yl)-benzoyl]phenoxy}methyl)phenyl]ethanone] |  |  |  | 32 | 72 | 
7.89 | CCCc1c(COc2ccc(C(O)c3cccc(-c4nnn[nH]4)c3)cc2)ccc(C(C)=O)c1O (stereo not shown) [Example 3, 1-{2-Hydroxy-4-[(4-{hydroxy[3-(1H-tetrazol-5-yl)-phenyl]methyl}phenoxy)methyl]-3-propylphenyl}ethanone] |  |  | 75 |  | 40 | 81
7.08 | CCCc1c(COc2ccc(Oc3ccc(-c4nnn[nH]4)cc3)cc2)ccc(C(C)=O)c1O [Example 4, 1-[2-Hydroxy-3-propyl-4-({4-[4-(1H-tetrazol-5-yl)-phenoxy]phenoxy}methyl)phenyl]ethanone] |  | 80 | 25 |  |  | 53
